Usually melting point stands for the temperature, or range, at which the solid turns liquid.

Data set [1] has as its system RKO human colon adenocarcinoma cells (RKOp27 subclone, uninduced, proliferating). Put plainly: Alamar Blue cell viability assay, anti-proliferative/cytotoxic activity, RKO p27 uninduced (proliferating). The conditions noted are these: 72 hours incubation, read-out: −log EC50 [mol/l] RKO p27 uninduced (proliferating) (converted). The format is cell-based. As for the experimental part: The compounds are dissolved as 10 mM solutions in DMSO and subsequently diluted in semi-logarithmic steps. DMSO dilutions are further diluted 1:100 v:v into Dulbecco's modified Eagle's medium (DMEM) containing 10% fetal calf serum to a final concentration twice as much as the final concentration in the test. RKO subclones are seeded into 96 well flat bottom plates at a density of 4000 cells per well in a volume of 50 μl per well. 24 hours after seeding the 50 μl each of the compound dilutions in DMEM medium are added into each well of the 96 well plate. Each compound dilution is tested as triplicates. Wells containing untreated control cells are filled with 50 μl DMEM medium containing 1% DMSO. The cells are then incubated with the substances for 72 hours at 37° C. in a humidified atmosphere containing 5% carbon dioxide. To determine the viability of the cells, 10 μl of an Alamar Blue solution (Biosource) are added and the fluorescence is measured at an extinction of 544 nm and an emission of 590 nm. For the calculation of the cell viability the emission value from untreated cells is set as 100% viability and the emission rates of treated cells are set in relation to the values of untreated cells. Viabilities are expressed as % values. The Graphpad Prism program is used for the calculation of EC50 values for anti-proliferative/cytotoxic activity out of the obtained dose-response curves.
Each compound dilution is tested as triplicates. Wells containing untreated control cells are filled with 50 μl DMEM medium containing 1% DMSO. The cells are then incubated with the substances for 72 hours at 37° C. in a humidified atmosphere containing 5% carbon dioxide. To determine the viability of the cells, 10 μl of an Alamar Blue solution (Biosource) are added and the fluorescence is measured at an extinction of 544 nm and an emission of 590 nm. For the calculation of the cell viability the emission value from untreated cells is set as 100% viability and the emission rates of treated cells are set in relation to the values of untreated cells. Viabilities are expressed as % values. The Graphpad Prism program (GraphPad Software, Inc) is used for the calculation of EC50 values out of the obtained dose-response curves. Viability is compared of proliferating cells grown in the absence of the inducer Ponasterone A, versus viability of cells arrested by the expression of ectopic p27Kip1 induced by Ponasterone A.
(In general: The colour change of resazurin is a common sign of viable cells or microbes.)

The compound `CN1C(=O)[C@@H]2Cc3c([nH]c4cc(F)ccc34)[C@@H](c3cccc(O)c3)N2C1=O` (racemic) [Example 2, (3aSR,10RS)-7-Fluoro-10-(3-hydroxy-phenyl)-2-methyl-3a,4,9,10-tetrahydro-2,9,10a-triaza-cyclopenta[b]fluorene-1,3-dione] gave a melting point of 279 to 283 °C. In addition, in data set [1], the EC50 is no more than 1000 nM.

`Cc1cccc2[nH]c3c(c12)C[C@H]1C(=O)N(C)C(=O)N1[C@@H]3c1cccc(O)c1` (racemic) [Example 5, (3aSR,10RS)-10-(3-Hydroxy-phenyl)-2,5-dimethyl-3a,4,9,10-tetrahydro-2,9,10a-triaza-cyclopenta[b]fluorene-1,3-dione] returned a melting point of 348 to 352 °C. Further, the EC50 in data set [1] is no more than 1000 nM.

On to `Cc1ccc2[nH]c3c(c2c1)C[C@H]1C(=O)N(C)C(=O)N1[C@@H]3c1cccc(O)c1` (racemic) [Example 4, (3aSR,10RS)-10-(3-Hydroxy-phenyl)-2,6-dimethyl-3a,4,9,10-tetrahydro-2,9,10a-triaza-cyclopenta[b]fluorene-1,3-dione], for which the EC50 in data set [1] is no more than 1000 nM.

Compound `COc1ccc2[nH]c3c(c2c1)C[C@H]1C(=O)N(C)C(=O)N1[C@@H]3c1cccc(O)c1` (racemic) [Example 7, (3aSR,10RS)-10-(3-Hydroxy-phenyl)-6-methoxy-2-methyl-3a,4,9,10-tetrahydro-2,9,10a-triaza-cyclopenta[b]fluorene-1,3-dione] gave a melting point of 172 to 175 °C. Besides, the EC50 in data set [1] was no more than 1000 nM.

For the compound `CN1C(=O)[C@@H]2Cc3c([nH]c4ccc(Br)cc34)[C@@H](c3cccc(O)c3)N2C1=O` (racemic) [Example 3, (3aSR,10RS)-6-Bromo-10-(3-hydroxy-phenyl)-2-methyl-3a,4,9,10-tetrahydro-2,9,10a-triaza-cyclopenta[b]fluorene-1,3-dione], the EC50 in data set [1] was no more than 1000 nM.

In turn, `Cc1ccc2c3c([nH]c2c1)[C@@H](c1cccc(O)c1)N1C(=O)N(C)C(=O)[C@@H]1C3` (racemic) [Example 6, (3aSR,10RS)-10-(3-Hydroxy-phenyl)-2,7-dimethyl-3a,4,9,10-tetrahydro-2,9,10a-triaza-cyclopenta[b]fluorene-1,3-dione] yielded a melting point of 282 to 285 °C.

For the origin of these results see patent publication US20110027226A1, “INDOLOPYRIDINES AS INHIBITORS OF THE KINESIN SPINDLE PROTEIN (EG5)” (4SC AG, priority 2007, published 2011).
